We go through two compounds from patent publication US6203813A, “Pharmaceutical delivery device and method of preparation therefor” (priority 1998, dated 2001).

Series [1] in a line: Patients' blood levels of naltrexone and 6-beta-naltrexone after subcutaneous pellet implant. Type of series: in vivo, human.
For series [2] the following is noted: cited from earlier work.
Series [3] relates to rats. As to conditions: 50 mg pellets containing 10 mg naloxone or naltrexone as base; cited from earlier work.
For series [4], the system named is opiate addicts. The series can be described thus: Relapse studies after opiate reversal under general anesthesia (telephone follow-up). Type of series: in vivo, human.
Series [5] relates to male rats. As to conditions: pentobarbital injection; naltrexone by injection vs pellet; cited from earlier work.
Series [6] deals with rats. As to conditions: chronic naltrexone exposure; cited from earlier work.
Series [7] deals with patients. Particulars: cited from earlier work.

SMILES strings stand for the structures. Entries after “also recorded” stand apart in the source; their conditions may differ.

As to `O=C1CC[C@@]2(O)[C@H]3Cc4ccc(O)c5c4[C@@]2(CCN3CC2CC2)[C@H]1O5` [naltrexone, N-cyclopropylmethylnoroxy morphone], in series [1] (1000 mg dose, inventive implant, ~2-8 ng/ml), the “duration of therapeutically effective naltrexone level in bloodstream” value is reported as “approximately eighty”. For the same compound, in series [1] (78 days since implant, patients' blood, pellet of Examples 1-4, listed as Ntx, 112320 min), the Ntx level was 6 ng/mL. In addition, the concentration at 1920 h in series [1] (human, blood, sc, 1000 mg, inventive implant, leveling off, for approximately eighty days, read-out: level of naltrexone in patient's bloodstream) fell in the range of 2 to 8 ng/mL. The concentration at 192 h in series [1] (human, blood, sc, 8 days since implant, patients' blood, pellet of Examples 1-4, read-out: Ntx level) was 7 ng/mL. In addition, the concentration at 336 h in series [1] (human, blood, sc, 14 days since implant, patients' blood, pellet of Examples 1-4, read-out: Ntx level) worked out at 11 ng/mL. Besides, the concentration at 528 h in series [1] (human, blood, sc, 22 days since implant, patients' blood, pellet of Examples 1-4, read-out: Ntx level) was found to be 7 ng/mL. Besides, the concentration at 672 h in series [1] (human, blood, sc, 28 days since implant, patients' blood, pellet of Examples 1-4, read-out: Ntx level) was found to be 2 ng/mL. Moreover, the concentration at 696 h in series [1] (human, blood, sc, 29 days since implant, patients' blood, pellet of Examples 1-4, read-out: Ntx level) came out at 2 ng/mL. In addition, the concentration at 768 h in series [1] (human, blood, sc, 32 days since implant, patients' blood, pellet of Examples 1-4, read-out: Ntx level) is 7 ng/mL. Moreover, the concentration at 792 h in series [1] (human, blood, sc, 33 days since implant, patients' blood, pellet of Examples 1-4, read-out: Ntx level) was under 2 ng/mL. The concentration at 816 h in series [1] (human, blood, sc, 34 days since implant, patients' blood, pellet of Examples 1-4, read-out: Ntx level) was found to be 4 ng/mL. The concentration at 840 h in series [1] (human, blood, sc, 35 days since implant, patients' blood, pellet of Examples 1-4, read-out: Ntx level) was 4 ng/mL. Moreover, the concentration at 888 h in series [1] (human, blood, sc, 37 days since implant, patients' blood, pellet of Examples 1-4, read-out: Ntx level) is under 3 ng/mL. Besides, the concentration at 912 h in series [1] (human, blood, sc, 38 days since implant, patients' blood, pellet of Examples 1-4, read-out: Ntx level) was under 2 ng/mL. Further, the concentration at 936 h in series [1] (human, blood, sc, 39 days since implant, patients' blood, pellet of Examples 1-4, read-out: Ntx level) worked out at 5 ng/mL. In addition, the concentration at 1008 h in series [1] (human, blood, sc, 42 days since implant, patients' blood, pellet of Examples 1-4, read-out: Ntx level) was 4 ng/mL. Moreover, the concentration at 1176 h in series [1] (human, blood, sc, 49 days since implant, patients' blood, pellet of Examples 1-4, read-out: Ntx level) amounted to 4 ng/mL. Moreover, the concentration at 1224 h in series [1] (human, blood, sc, 51 days since implant, patients' blood, pellet of Examples 1-4, read-out: Ntx level) came to 8 ng/mL. The concentration at 1320 h in series [1] (human, blood, sc, 55 days since implant, patients' blood, pellet of Examples 1-4, read-out: Ntx level) is 36 ng/mL. Further, in series [1] (human, blood, sc, 60 days since implant, patients' blood, pellet of Examples 1-4, read-out: Ntx level), the concentration at 1440 h turned out to be 10 ng/mL. For the same compound, the concentration at 1488 h in series [1] (human, blood, sc, 62 days since implant, patients' blood, pellet of Examples 1-4, read-out: Ntx level) is under 4 ng/mL. The concentration at 1560 h in series [1] (human, blood, sc, 65 days since implant, patients' blood, pellet of Examples 1-4, read-out: Ntx level) is under 2 ng/mL. The concentration at 1680 h in series [1] (human, blood, sc, 70 days since implant, patients' blood, pellet of Examples 1-4, read-out: Ntx level) turned out to be 3 ng/mL. Also, the concentration at 1848 h in series [1] (human, blood, sc, 77 days since implant, patients' blood, pellet of Examples 1-4, read-out: Ntx level) was found to be 2 ng/mL. Further, in series [1] (human, blood, sc, 78 days since implant, patients' blood, pellet of Examples 1-4, read-out: Ntx level), the concentration at 1872 h was 4 ng/mL. Also, in series [2] (1000 mg naltrexone orally, after 48 hours / two days), the “level in bloodstream after leveling off, oral” value was 0 ng/mL. For the same compound, the “duration of the 100 ng/ml level, oral” value in series [2] (1000 mg naltrexone orally) was 48 h. In addition, in series [2] (1000 mg naltrexone orally, for 48 hours), the “level in patient's bloodstream, oral” value was 100 ng/mL. The “undesirable side effects of conventional oral delivery” value in series [2] (at approximately 100 ng/l in the blood stream) was “undesirable side effects such as an unpleasant feeling”. Moreover, in series [3], the “analgesia on repeated painful stimulation” value is reported as “repeated painful stimulation results in analgesia in rats treated with an opiate antagonist”. In series [4] (one month after opiate reversal, DNM versus ONM, x2=0.76 (not significant)), the “patients using opiates, assuming all not contacted were using” value turned out to be 54%. In series [4] (one month follow-up after ORGA, DNM 1000 mg per month pellet versus ONM 50 mg per day oral, x2=14.06 (very significant)), the “patients using opiates, excluding those who could not be contacted” value turned out to be 44%. The pentobarbital sleeping time result in series [5] is recorded as “increasingly antagonized after naltrexone administration by injection”. Moreover, the “behavioral sensitivity / morphine-induced hyperactivity after chronic naltrexone” value in series [6] is “produces behavioral supersensitivity to morphine-induced reinforcement and hyperactivity; also recorded: potentiated morphine-induced hyperactivity in rats”. For the same compound, in series [7] (human, in vivo), the addiction liability entry is “neither addicting nor habit-forming”; the “euphoric effects / effects on stopping the drug” value is “provides no euphoric effects and there are no observable pharmacological consequences when a patient stops taking the drug”. In addition, the side-effects entry in series [7] (use in humans) is “free of severe side-effects”.

For `C=CCN1CC[C@]23c4c5ccc(O)c4O[C@H]2C(=O)CC[C@@]3(O)[C@H]1C5` [naloxone, N-allylnoroxymorphone], the “analgesia on repeated painful stimulation” value in series [3] is “repeated painful stimulation results in analgesia in rats treated with an opiate antagonist”.
